From patent US20210045385A1, “PYRIDAZINONE-SUBSTITUTED KETOXIMES AS HERBICIDES” (FMC Corporation, priority 2018, published 2021)

Legend:
Format in all cases: in vivo
[1] = system: pigweed (Amaranthus retroflexus); assay: Test C preemergence, visual plant response rating
Outline: (§1)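 Compounds in a non-phytotoxic solvent with surfactant were applied as a directed soil spray preemergence or to 2–10 cm, one- to two-leaf plants postemergence, in loam–sand soil. After about 10 d in a greenhouse, injury was visually rated against untreated controls on a 0–100 scale (100 = complete control).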

[2] = system: ragweed (common ragweed, Ambrosia artemisiifolia); assay: Test C preemergence, visual plant response rating
Outline: as §1

[3] = system: Italian ryegrass (Lolium mutiflorum); assay: Test C preemergence, visual plant response rating
Outline: as §1

[4] = system: barnyardgrass (Echinochloa crus-galli); assay: Test C preemergence, visual plant response rating
Outline: as §1

[5] = system: kochia (Bassia scoparia); assay: Test C preemergence, visual plant response rating
Outline: as §1

[6] = system: foxtail, giant (giant foxtail, Setaria faberi); assay: Test C preemergence, visual plant response rating
Outline: as §1

[7] = system: wheat (Triticum aestivum); assay: Test C postemergence, visual plant response rating
Outline: as §1

[8] = system: pigweed (Amaranthus retroflexus); assay: Test C postemergence, visual plant response rating
Outline: as §1

[9] = system: ragweed (common ragweed, Ambrosia artemisiifolia); assay: Test C postemergence, visual plant response rating
Outline: as §1

[10] = system: Italian ryegrass (Lolium mutiflorum); assay: Test C postemergence, visual plant response rating
Outline: as §1

[11] = system: barnyardgrass (Echinochloa crus-galli); assay: Test C postemergence, visual plant response rating; details: Test C, postemergence
Outline: as §1

[12] = system: kochia (Bassia scoparia); assay: Test C postemergence, visual plant response rating; details: Test C, postemergence
Outline: as §1

[13] = system: blackgrass (Alopecurus myosuroides); assay: Test C postemergence, visual plant response rating; details: Test C, postemergence
Outline: as §1

[14] = system: galium (catchweed bedstraw, Galium aparine); assay: Test C postemergence, visual plant response rating; details: Test C, postemergence
Outline: as §1

[15] = system: corn (Zea mays); assay: Test C postemergence, visual plant response rating; details: Test C, postemergence
Outline: as §1

[16] = system: foxtail, giant (giant foxtail, Setaria faberi); assay: Test C postemergence, visual plant response rating; details: Test C, postemergence
Outline: as §1

[17] = system: sedge umbrella (small-flower umbrella sedge, Cyperus difformis); assay: Test D flooded paddy test, visual plant response rating; details: 250 g ai/ha, scale 0 to 100 (0 no effect, 100 complete control), 13 to 15 d
Outline: (§2)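 Plants were grown to the 2-leaf stage, pots flooded to 3 cm above soil, and compound applied directly into the paddy water, with the depth held throughout. After 13 to 15 d in a greenhouse, response was rated visually against untreated controls on a 0–100 scale (0 no effect, 100 complete control).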

[18] = system: duck salad (Heteranthera limosa); assay: as above; details: 250 g ai/ha, scale 0 to 100 (0 no effect, 100 complete control), 13 to 15 d
Outline: as §2

[19] = system: barnyardgrass (Echinochloa crus-galli); assay: as above; details: 250 g ai/ha, scale 0 to 100 (0 no effect, 100 complete control), 13 to 15 d
Outline: as §2

[20] = system: rice (Oryza sativa); assay: as above; details: 250 g ai/ha, scale 0 to 100 (0 no effect, 100 complete control), 13 to 15 d
Outline: as §2

[21] = Test C, 31 g ai/ha, 0 is no effect, 100 is complete control
[22] = Test C, postemergence, 125 g ai/ha

Compound	Pigweed plant response rating (0 to 100 scale) ([1]; 125 g ai/ha)	Pigweed plant response rating (0 to 100 scale) [1, 21]	Ragweed plant response rating (0 to 100 scale) ([2]; 125 g ai/ha)	Ragweed plant response rating (0 to 100 scale) [2, 21]	Ryegrass, Italian plant response rating (0 to 100 scale) ([3]; 125 g ai/ha)	Ryegrass, Italian plant response rating (0 to 100 scale) [3, 21]	Barnyardgrass plant response rating (0 to 100 scale) ([4]; 125 g ai/ha)	Barnyardgrass plant response rating (0 to 100 scale) [4, 21]	Kochia plant response rating (0 to 100 scale) ([5]; 125 g ai/ha)	Kochia plant response rating (0 to 100 scale) [5, 21]	Foxtail, Giant plant response rating (0 to 100 scale) ([6]; 125 g ai/ha)	Foxtail, Giant plant response rating (0 to 100 scale) [6, 21]	Wheat plant response rating (0 to 100 scale) ([7]; Postemergence, 31 g ai/ha)	Wheat plant response rating (0 to 100 scale) [7, 22]	Pigweed plant response rating (0 to 100 scale) ([8]; Postemergence, 31 g ai/ha)	Pigweed plant response rating (0 to 100 scale) [8, 22]	Ragweed plant response rating (0 to 100 scale) ([9]; Postemergence, 31 g ai/ha)	Ragweed plant response rating (0 to 100 scale) [9, 22]	Ryegrass, Italian plant response rating (0 to 100 scale) ([10]; Postemergence, 31 g ai/ha)	Ryegrass, Italian plant response rating (0 to 100 scale) [10, 22]	other results
CON=C(c1cc(Cl)cc(Cl)c1F)c1c(O)c(C)nn(C)c1=O [Compound 153]	100	100	100	90	100	100	90	80	90	60	100	90	40	80	100	100	90	100	90	100	Barnyardgrass plant response rating (0 to 100 scale) ([11]; 31 g ai/ha): 80; Barnyardgrass plant response rating (0 to 100 scale) ([11]; 125 g ai/ha): 90; Kochia plant response rating (0 to 100 scale) ([12]; 31 g ai/ha): 90; Kochia plant response rating (0 to 100 scale) ([12]; 125 g ai/ha): 100; Blackgrass plant response rating (0 to 100 scale) ([13]; 31 g ai/ha): 50; Blackgrass plant response rating (0 to 100 scale) ([13]; 125 g ai/ha): 80; Galium plant response rating (0 to 100 scale) ([14]; 31 g ai/ha): 100; Galium plant response rating (0 to 100 scale) ([14]; 125 g ai/ha): 100; Corn plant response rating (0 to 100 scale) ([15]; 31 g ai/ha): 20; Corn plant response rating (0 to 100 scale) ([15]; 125 g ai/ha): 50; Foxtail, Giant plant response rating (0 to 100 scale) ([16]; 31 g ai/ha): 90; Foxtail, Giant plant response rating (0 to 100 scale) ([16]; 125 g ai/ha): 100; Plant response rating, Sedge, Umbrella (Flood) [17]: 70; Plant response rating, Ducksalad (Flood) [18]: 55; Plant response rating, Barnyardgrass (Flood) [19]: 80; Plant response rating, Rice (Flood) [20]: 40
C#CCO/N=C(/c1cc(C)cc(Cl)c1)c1c(O)c(C)nn(C)c1=O [Compound 154]	90	40	80	40	100	40	90	40	90	0	100	60	30	90	30	100	70	90	70	100	Barnyardgrass plant response rating (0 to 100 scale) ([11]; 31 g ai/ha): 50; Barnyardgrass plant response rating (0 to 100 scale) ([11]; 125 g ai/ha): 90; Kochia plant response rating (0 to 100 scale) ([12]; 31 g ai/ha): 60; Kochia plant response rating (0 to 100 scale) ([12]; 125 g ai/ha): 70; Blackgrass plant response rating (0 to 100 scale) ([13]; 31 g ai/ha): 50; Blackgrass plant response rating (0 to 100 scale) ([13]; 125 g ai/ha): 90; Galium plant response rating (0 to 100 scale) ([14]; 31 g ai/ha): 90; Galium plant response rating (0 to 100 scale) ([14]; 125 g ai/ha): 100; Corn plant response rating (0 to 100 scale) ([15]; 31 g ai/ha): 0; Corn plant response rating (0 to 100 scale) ([15]; 125 g ai/ha): 40; Foxtail, Giant plant response rating (0 to 100 scale) ([16]; 31 g ai/ha): 80; Foxtail, Giant plant response rating (0 to 100 scale) ([16]; 125 g ai/ha): 90; Plant response rating, Sedge, Umbrella (Flood) [17]: 0; Plant response rating, Ducksalad (Flood) [18]: 0; Plant response rating, Barnyardgrass (Flood) [19]: 0; Plant response rating, Rice (Flood) [20]: 0
C#CCO/N=C(\c1cc(C)cc(Cl)c1)c1c(O)c(C)nn(C)c1=O [Compound 155]	100	40	90	70	100	40	100	70	90	0	90	80	0	60	50	100	90	100	90	100	Barnyardgrass plant response rating (0 to 100 scale) ([11]; 31 g ai/ha): 50; Barnyardgrass plant response rating (0 to 100 scale) ([11]; 125 g ai/ha): 80; Kochia plant response rating (0 to 100 scale) ([12]; 31 g ai/ha): 70; Kochia plant response rating (0 to 100 scale) ([12]; 125 g ai/ha): 80; Blackgrass plant response rating (0 to 100 scale) ([13]; 31 g ai/ha): 30; Blackgrass plant response rating (0 to 100 scale) ([13]; 125 g ai/ha): 90; Galium plant response rating (0 to 100 scale) ([14]; 31 g ai/ha): 90; Galium plant response rating (0 to 100 scale) ([14]; 125 g ai/ha): 90; Corn plant response rating (0 to 100 scale) ([15]; 31 g ai/ha): 0; Corn plant response rating (0 to 100 scale) ([15]; 125 g ai/ha): 20; Foxtail, Giant plant response rating (0 to 100 scale) ([16]; 31 g ai/ha): 80; Foxtail, Giant plant response rating (0 to 100 scale) ([16]; 125 g ai/ha): 90; Plant response rating, Sedge, Umbrella (Flood) [17]: 45; Plant response rating, Ducksalad (Flood) [18]: 30; Plant response rating, Barnyardgrass (Flood) [19]: 15; Plant response rating, Rice (Flood) [20]: 0
CO/N=C(/c1cc(Cl)cc(Br)c1)c1c(O)c(C)nn(C)c1=O [Compound 156]	80	40	100	100	100	100	80	0	100	40	100	50	0	50	70	80	90	100	100	100	Barnyardgrass plant response rating (0 to 100 scale) ([11]; 31 g ai/ha): 40; Barnyardgrass plant response rating (0 to 100 scale) ([11]; 125 g ai/ha): 70; Kochia plant response rating (0 to 100 scale) ([12]; 31 g ai/ha): 80; Kochia plant response rating (0 to 100 scale) ([12]; 125 g ai/ha): 100; Blackgrass plant response rating (0 to 100 scale) ([13]; 31 g ai/ha): 30; Blackgrass plant response rating (0 to 100 scale) ([13]; 125 g ai/ha): 30; Galium plant response rating (0 to 100 scale) ([14]; 31 g ai/ha): 100; Galium plant response rating (0 to 100 scale) ([14]; 125 g ai/ha): 100; Corn plant response rating (0 to 100 scale) ([15]; 31 g ai/ha): 20; Corn plant response rating (0 to 100 scale) ([15]; 125 g ai/ha): 20; Foxtail, Giant plant response rating (0 to 100 scale) ([16]; 31 g ai/ha): 60; Foxtail, Giant plant response rating (0 to 100 scale) ([16]; 125 g ai/ha): 90; Plant response rating, Sedge, Umbrella (Flood) [17]: 30; Plant response rating, Ducksalad (Flood) [18]: 30; Plant response rating, Barnyardgrass (Flood) [19]: 0; Plant response rating, Rice (Flood) [20]: 0
